This is an account of results in patent US20110159479A1, “GENETIC POLYMORPHISMS IN THE CYTOCHROME P450 GENE WITH CLOPIDOGREL RESISTANCE” (Industry-University Cooperation Foundation Yonsei University, priority 2009, published 2011).

The nature of assay [1]: VerifyNow P2Y12 platelet-function assay in CAD patients with drug-eluting stents on clopidogrel. It is filed as in vivo, human. The text has this:
(§1) From October 2006 to July 2007, 450 consecutive patients who underwent successful percutaneous coronary intervention (PCI) with drug-eluting stents (DES) were randomly assigned to treatment with dual anti-platelet regimens (aspirin plus clopidogrel, n=225) or triple antiplatelet regimens (aspirin plus clopidogrel plus cilostazol, n=225). Inclusion criteria were: symptomatic coronary artery disease (CAD) or documented myocardial ischemia (by treadmill exercise testing or sestamibi scan); angiographic evidence of 50% diameter stenosis and post procedure Thromobolysis In Myocardial Infarction (TIMI) flow grade 3. Exclusion criteria were: contraindication to antiplatelet agents; previous allergy or intolerance of aspirin or clopidogrel; treatment with warfarin; active bleeding; known platelet dysfunction; abnormal platelet count (<100,000/mm^3). Patients received a 300 mg loading dose of clopidogrel at least 12 hours before the stenting. Stents were deployed according to standard techniques. The maintenance dose for each antiplatelet agent was 100 mg once a day for aspirin, 75 mg once a day for clopidogrel, and 100 mg twice a day for cilostazol. Among the enrolled patients, 387 patients were analyzed for clopidogrel resistance by VerifyNow P2Y12 system (Accumetrics, San Diego, Calif.), and blood sampling for genetic analysis.
(§2) The VerifyNow P2Y12 system is a rapid platelet-function, cartridge based assay designed to directly measure the effects of clopidogrel on the P2Y12 receptor. Results are expressed as P2Y12 reaction units (PRUs) and percentage inhibition. PRU reports the amount of P2Y12 receptor mediated aggregation.
(§3) Values were expressed as mean±SD. Chi-square test for goodness of fit was used to verify agreement with Hardy-Weinberg equilibrium (HWE) using Fisher's exact test. Comparison of discrete variables was performed using the Chi-square test analysis or Fisher's exact test. Comparison of continuous variables between the two study groups was performed using the Student's t-test. Multivariate logistic regression analysis was performed to determine the independent association of CYP gene polymorphisms with clopidogrel resistance. Odds ratios (ORs) were calculated with 95% confidence intervals (CIs) for the relative risk of clopidogrel resistance related to genotypes. Statistical analysis was performed with SPSS 15.0 (SPSS Inc, Chicago, Ill.). All values of P<0.05 were considered statistically significant.

For assay [2] the following is noted: patients following coronary stenting; previous reports; cited from earlier work.
Assay [3] addresses T1, P2Y12 receptor (Homo sapiens, UniProt Q9H244).
T1 construct: PRU reports the amount of P2Y12 receptor mediated aggregation; from tissue; host or cells: platelets in blood of patients (VerifyNow P2Y12 system, Accumetrics)
Briefly: VerifyNow P2Y12 platelet-function assay in CAD patients with drug-eluting stents on clopidogrel. It is filed as in vivo. The settings on record: for % inhibition of platelet activity: mean ± SD; for Rate of clopidogrel resistance: subjects with CYP2C19*3 A allele.
Description: as §1, §2, §3

Each structure is given as a SMILES string.

T1 sequence (Q9H244 whole entry): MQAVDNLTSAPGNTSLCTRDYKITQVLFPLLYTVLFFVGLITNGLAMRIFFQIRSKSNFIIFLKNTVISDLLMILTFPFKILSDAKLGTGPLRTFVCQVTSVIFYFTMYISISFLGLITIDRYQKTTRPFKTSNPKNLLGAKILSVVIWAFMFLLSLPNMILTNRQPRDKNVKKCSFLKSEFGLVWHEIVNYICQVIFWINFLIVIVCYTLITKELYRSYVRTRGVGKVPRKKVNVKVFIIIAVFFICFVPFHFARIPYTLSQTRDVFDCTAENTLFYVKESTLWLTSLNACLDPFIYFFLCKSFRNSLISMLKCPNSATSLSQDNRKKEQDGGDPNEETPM

For the compound `O=C1CCc2cc(OCCCCc3nnnn3C3CCCCC3)ccc2N1` [Cilostazol], the “Patients on cilostazol, number (percentage of group)” value in assay [1] (clopidogrel resistant group (Resistance)) is listed as 32 (28.6%); in assay [1] (clopidogrel responsive group (No resistance)) it was 158 (57.5%).

As to `COC(=O)[C@H](c1ccccc1Cl)N1CCc2sccc2C1` [clopidogrel, (+)-(S)-methyl 2-(2-chlorophenyl)-2-(6,7-dihydrothieno[3,2-c]pyridin-5(4H)-yl)acetate], the “Prevalence of clopidogrel nonresponsiveness” value in assay [2] was 5-44%. For the same compound, the “Clopidogrel resistance (percent inhibition <20%), proportion of patients” value in assay [3] (387 CAD patients with DES insertion, 112 patients) is listed as 28.9%. Besides, the “% inhibition of platelet activity” value is on record as 32.5 ± 22.3% in assay [3] (CYP1A1 rs1048943, codominant, genotype AA (211)); 37.7 ± 24.2% in assay [3] (CYP1A1 rs1048943, codominant, genotype AG (153)); 38.7 ± 24.4% in assay [3] (CYP1A1 rs1048943, codominant, genotype GG (20)); 32.5 ± 22.3% in assay [3] (CYP1A1 rs1048943, dominant, genotype AA (210)); 37.8 ± 24.2% in assay [3] (CYP1A1 rs1048943, dominant, genotype AG/GG (170)); 34.7 ± 23.2% in assay [3] (CYP1A1 rs1048943, recessive, genotype AA/AG (361)). The “% inhibition of platelet activity” value is given as 38.7 ± 24.4% in assay [3] (CYP1A1 rs1048943, recessive, genotype GG (19)); 30.9 ± 21.7% in assay [3] (CYP2C19*2 rs4244285, codominant, genotype AA (39)); 32.5 ± 21.6% in assay [3] (CYP2C19*2 rs4244285, codominant, genotype GA (133)); 37.2 ± 24.5% in assay [3] (CYP2C19*2 rs4244285, codominant, genotype GG (210)); 32.1 ± 21.6% in assay [3] (CYP2C19*2 rs4244285, dominant, genotype GA/AA (172)); 37.2 ± 24.5% in assay [3] (CYP2C19*2 rs4244285, dominant, genotype GG (210)). Moreover, the “% inhibition of platelet activity” value in assay [3] (CYP2C19*2 rs4244285, recessive, genotype AA (39)) is given as 30.9 ± 21.7%; in assay [3] (CYP2C19*2 rs4244285, recessive, genotype GG/GA (343)), 35.3 ± 23.5%; in assay [3] (CYP2C19*3 rs4986893, codominant, genotype AA (2)), 17.0 ± 24.0%; in assay [3] (CYP2C19*3 rs4986893, codominant, genotype GA (68)) it was 24.9 ± 20.1%; in assay [3] (CYP2C19*3 rs4986893, codominant, genotype GG (316)) it was 36.9 ± 23.4%; in assay [3] (CYP2C19*3 rs4986893, dominant, genotype GA/AA (70)), 24.6 ± 20.0%. Moreover, the “% inhibition of platelet activity” value stood at 36.9 ± 23.4% in assay [3] (CYP2C19*3 rs4986893, dominant, genotype GG (316)); 17.0 ± 24.0% in assay [3] (CYP2C19*3 rs4986893, recessive, genotype AA (2)); 34.8 ± 23.3% in assay [3] (CYP2C19*3 rs4986893, recessive, genotype GG/GA (384)). The “Rate of clopidogrel resistance” value is on record as 57.6% in assay [3] (dual regimen therapy (aspirin plus clopidogrel)) and 37.1% in assay [3] (triple regimen therapy (aspirin plus clopidogrel plus cilostazol)).
